# Experimental data from ChEMBL document CHEMBL2073864, “Transport of glyburide by placental ABC transporters: implications in fetal drug exposure” (Placenta, 2006).
# Key:
# Assay type in all cases: functional, cell-based
# [1] = biological target: T1, ATP-binding cassette sub-family C member 2 (Homo sapiens, UniProt Q92887); test: TP_TRANSPORTER: inhibition of 5-carboxyfluorescein accumulation in MRP2-expressing MDCK cells; details: dog
# [2] = biological target: Multidrug resistance associated protein (Homo sapiens) (UniProt Q96QA9); test: TP_TRANSPORTER: inhibition of 5-carboxyfluorescein accumulation by glyburide at a concentration of 200uM in MRP3-expressing MDCK cells; set-up: scale not given: the % may be the effect or the level left
# [3] = biological target: T2, Broad substrate specificity ATP-binding cassette transporter ABCG2 (Homo sapiens, UniProt Q9UNQ0); test: TP_TRANSPORTER: inhibition of mitoxantrone efflux in BCRP-expressing MCF7-MX cells
# T2 sequence (Q9UNQ0 whole entry): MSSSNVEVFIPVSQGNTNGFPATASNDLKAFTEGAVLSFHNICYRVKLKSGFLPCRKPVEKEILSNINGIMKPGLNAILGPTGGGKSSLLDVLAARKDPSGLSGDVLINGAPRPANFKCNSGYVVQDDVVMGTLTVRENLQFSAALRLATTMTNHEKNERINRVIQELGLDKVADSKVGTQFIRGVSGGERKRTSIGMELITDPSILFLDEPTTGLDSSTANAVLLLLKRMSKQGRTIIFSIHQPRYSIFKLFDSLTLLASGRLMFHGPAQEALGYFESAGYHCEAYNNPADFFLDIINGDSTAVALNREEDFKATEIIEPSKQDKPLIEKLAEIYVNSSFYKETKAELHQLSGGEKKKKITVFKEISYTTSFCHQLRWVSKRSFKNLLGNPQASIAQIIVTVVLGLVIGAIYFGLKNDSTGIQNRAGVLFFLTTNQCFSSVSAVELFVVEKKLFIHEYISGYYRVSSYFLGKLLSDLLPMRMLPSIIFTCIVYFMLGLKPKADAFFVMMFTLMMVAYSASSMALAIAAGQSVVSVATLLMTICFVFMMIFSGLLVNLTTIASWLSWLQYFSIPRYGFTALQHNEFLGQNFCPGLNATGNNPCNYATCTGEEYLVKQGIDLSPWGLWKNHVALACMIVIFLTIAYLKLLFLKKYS
# [4] = biological target: Multidrug resistance associated protein (Homo sapiens) (UniProt Q96QA9); test: TP_TRANSPORTER: inhibition of 5-carboxyfluorescein accumulation by glyburide at a concentration of 10uM in MRP3-expressing MDCK cells
# [5] = biological target: T1, ATP-binding cassette sub-family C member 2; test: TP_TRANSPORTER: inhibition of 5-carboxyfluorescein accumulation by glyburide at a concentration of 200uM in MRP2-expressing MDCK cells; set-up: scale not given: the % may be the effect or the level left; details: dog
# [6] = biological target: T3, Multidrug resistance-associated protein 1 (Mus musculus, UniProt O35379); test: TP_TRANSPORTER: inhibition of 5-carboxyfluorescein accumulation in the presence of glyburide at a concentration of 10uM in MRP1-expressing HeLa cells; details: human
# [7] = biological target: T1, ATP-binding cassette sub-family C member 2; test: TP_TRANSPORTER: inhibition of glyburide accumulation in MRP2-expressing MDCK cells; details: dog
# [8] = biological target: T3, Multidrug resistance-associated protein 1; test: TP_TRANSPORTER: inhibition of 5-carboxyfluorescein accumulation in the presence of indomethacin at a concentration of 200uM in MRP1-expressing HeLa cells; set-up: scale not given: the % may be the effect or the level left; details: human
# [9] = biological target: Multidrug resistance associated protein (Homo sapiens) (UniProt Q96QA9); test: TP_TRANSPORTER: inhibition of glyburide accumulation by indomethacin at a concentration of 200uM in MRP3-expressing MDCK cells
# [10] = biological target: Multidrug resistance associated protein (Homo sapiens) (UniProt Q96QA9); test: TP_TRANSPORTER: inhibition of 5-carboxyfluorescein accumulation by indomethacin at a concentration of 200uM in MRP3-expressing MDCK cells; set-up: scale not given: the % may be the effect or the level left
# [11] = biological target: T3, Multidrug resistance-associated protein 1; test: TP_TRANSPORTER: inhibition of glyburide accumulation in the presence of indomethacin at a concentration of 200uM in MRP1-expressing HeLa cells; details: human
# T3 sequence (O35379 whole entry): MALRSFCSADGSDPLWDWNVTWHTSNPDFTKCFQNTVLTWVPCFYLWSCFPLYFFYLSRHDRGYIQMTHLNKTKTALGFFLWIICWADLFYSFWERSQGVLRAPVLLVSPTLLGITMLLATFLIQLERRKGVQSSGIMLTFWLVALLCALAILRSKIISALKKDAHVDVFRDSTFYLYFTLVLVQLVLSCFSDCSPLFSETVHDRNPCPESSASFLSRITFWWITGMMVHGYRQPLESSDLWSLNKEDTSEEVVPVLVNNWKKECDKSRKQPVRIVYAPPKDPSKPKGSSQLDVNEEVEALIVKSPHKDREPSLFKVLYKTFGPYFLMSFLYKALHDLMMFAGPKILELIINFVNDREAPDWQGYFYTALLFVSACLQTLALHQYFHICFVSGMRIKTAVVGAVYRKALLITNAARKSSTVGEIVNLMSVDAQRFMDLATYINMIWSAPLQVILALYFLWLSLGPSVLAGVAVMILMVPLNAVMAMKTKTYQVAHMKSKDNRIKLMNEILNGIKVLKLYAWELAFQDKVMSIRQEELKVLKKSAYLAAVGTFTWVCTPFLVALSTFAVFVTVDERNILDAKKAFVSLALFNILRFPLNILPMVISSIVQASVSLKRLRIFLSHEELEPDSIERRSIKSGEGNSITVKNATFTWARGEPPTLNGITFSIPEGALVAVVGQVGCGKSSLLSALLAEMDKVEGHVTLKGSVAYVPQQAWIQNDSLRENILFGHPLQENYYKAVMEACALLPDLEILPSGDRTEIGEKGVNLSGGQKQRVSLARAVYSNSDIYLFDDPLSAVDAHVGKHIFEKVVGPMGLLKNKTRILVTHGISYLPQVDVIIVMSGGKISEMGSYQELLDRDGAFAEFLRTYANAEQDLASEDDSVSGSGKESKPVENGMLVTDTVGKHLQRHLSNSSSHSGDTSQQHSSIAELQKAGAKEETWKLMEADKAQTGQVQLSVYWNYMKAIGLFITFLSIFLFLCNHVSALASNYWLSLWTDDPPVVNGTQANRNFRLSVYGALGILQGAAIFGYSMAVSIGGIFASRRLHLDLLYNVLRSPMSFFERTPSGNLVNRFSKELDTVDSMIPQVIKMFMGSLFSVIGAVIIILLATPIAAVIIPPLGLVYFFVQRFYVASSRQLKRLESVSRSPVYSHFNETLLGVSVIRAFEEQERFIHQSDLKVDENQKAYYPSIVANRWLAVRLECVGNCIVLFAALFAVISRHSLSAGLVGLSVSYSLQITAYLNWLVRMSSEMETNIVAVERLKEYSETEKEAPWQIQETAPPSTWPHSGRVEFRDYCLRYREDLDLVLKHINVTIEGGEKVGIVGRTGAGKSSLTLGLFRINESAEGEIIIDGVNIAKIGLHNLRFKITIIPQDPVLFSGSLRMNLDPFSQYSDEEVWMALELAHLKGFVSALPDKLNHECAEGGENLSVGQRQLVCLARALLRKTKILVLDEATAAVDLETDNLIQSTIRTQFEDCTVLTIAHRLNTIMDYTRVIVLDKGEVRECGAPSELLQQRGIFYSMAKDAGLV
# Sequence of Multidrug resistance associated protein (Homo sapiens) (Q96QA9 as listed by the source): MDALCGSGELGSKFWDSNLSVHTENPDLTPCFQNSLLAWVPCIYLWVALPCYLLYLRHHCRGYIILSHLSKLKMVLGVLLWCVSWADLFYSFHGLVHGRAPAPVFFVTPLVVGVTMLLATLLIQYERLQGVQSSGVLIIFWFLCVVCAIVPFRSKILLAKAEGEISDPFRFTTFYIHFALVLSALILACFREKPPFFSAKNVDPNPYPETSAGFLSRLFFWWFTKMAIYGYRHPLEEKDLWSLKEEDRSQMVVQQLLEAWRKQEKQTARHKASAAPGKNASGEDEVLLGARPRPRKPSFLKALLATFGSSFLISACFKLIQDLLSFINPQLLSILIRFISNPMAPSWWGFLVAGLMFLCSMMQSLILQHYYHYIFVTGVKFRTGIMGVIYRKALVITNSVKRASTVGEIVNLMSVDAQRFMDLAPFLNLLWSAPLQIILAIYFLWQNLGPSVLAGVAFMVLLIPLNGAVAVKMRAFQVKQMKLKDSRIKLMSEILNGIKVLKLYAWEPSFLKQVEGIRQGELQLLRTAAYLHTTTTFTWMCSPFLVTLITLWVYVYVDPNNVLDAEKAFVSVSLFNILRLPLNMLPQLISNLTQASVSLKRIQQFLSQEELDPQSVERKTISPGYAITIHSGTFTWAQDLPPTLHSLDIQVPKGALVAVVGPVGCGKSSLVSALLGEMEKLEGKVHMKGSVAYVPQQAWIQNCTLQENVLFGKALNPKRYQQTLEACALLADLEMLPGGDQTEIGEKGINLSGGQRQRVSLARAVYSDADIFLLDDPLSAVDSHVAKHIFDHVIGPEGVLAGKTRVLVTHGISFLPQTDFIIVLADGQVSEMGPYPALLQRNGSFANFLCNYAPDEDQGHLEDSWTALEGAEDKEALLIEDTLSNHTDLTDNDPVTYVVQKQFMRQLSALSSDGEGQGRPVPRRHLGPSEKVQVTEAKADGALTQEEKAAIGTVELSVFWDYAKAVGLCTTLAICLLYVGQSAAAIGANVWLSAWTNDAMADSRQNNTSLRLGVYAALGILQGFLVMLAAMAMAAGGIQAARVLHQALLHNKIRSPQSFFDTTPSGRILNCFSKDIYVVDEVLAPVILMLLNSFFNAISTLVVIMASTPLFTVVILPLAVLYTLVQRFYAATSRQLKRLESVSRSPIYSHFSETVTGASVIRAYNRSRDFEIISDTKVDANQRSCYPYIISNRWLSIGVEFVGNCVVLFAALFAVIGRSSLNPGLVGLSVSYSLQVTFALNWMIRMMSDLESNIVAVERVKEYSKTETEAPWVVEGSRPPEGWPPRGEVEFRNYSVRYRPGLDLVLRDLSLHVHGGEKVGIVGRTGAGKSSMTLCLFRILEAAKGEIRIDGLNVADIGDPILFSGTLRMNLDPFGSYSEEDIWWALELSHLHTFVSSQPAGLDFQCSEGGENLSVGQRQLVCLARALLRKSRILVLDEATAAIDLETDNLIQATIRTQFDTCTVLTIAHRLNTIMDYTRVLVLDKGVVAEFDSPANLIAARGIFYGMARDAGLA
# T1 sequence (Q92887 whole entry): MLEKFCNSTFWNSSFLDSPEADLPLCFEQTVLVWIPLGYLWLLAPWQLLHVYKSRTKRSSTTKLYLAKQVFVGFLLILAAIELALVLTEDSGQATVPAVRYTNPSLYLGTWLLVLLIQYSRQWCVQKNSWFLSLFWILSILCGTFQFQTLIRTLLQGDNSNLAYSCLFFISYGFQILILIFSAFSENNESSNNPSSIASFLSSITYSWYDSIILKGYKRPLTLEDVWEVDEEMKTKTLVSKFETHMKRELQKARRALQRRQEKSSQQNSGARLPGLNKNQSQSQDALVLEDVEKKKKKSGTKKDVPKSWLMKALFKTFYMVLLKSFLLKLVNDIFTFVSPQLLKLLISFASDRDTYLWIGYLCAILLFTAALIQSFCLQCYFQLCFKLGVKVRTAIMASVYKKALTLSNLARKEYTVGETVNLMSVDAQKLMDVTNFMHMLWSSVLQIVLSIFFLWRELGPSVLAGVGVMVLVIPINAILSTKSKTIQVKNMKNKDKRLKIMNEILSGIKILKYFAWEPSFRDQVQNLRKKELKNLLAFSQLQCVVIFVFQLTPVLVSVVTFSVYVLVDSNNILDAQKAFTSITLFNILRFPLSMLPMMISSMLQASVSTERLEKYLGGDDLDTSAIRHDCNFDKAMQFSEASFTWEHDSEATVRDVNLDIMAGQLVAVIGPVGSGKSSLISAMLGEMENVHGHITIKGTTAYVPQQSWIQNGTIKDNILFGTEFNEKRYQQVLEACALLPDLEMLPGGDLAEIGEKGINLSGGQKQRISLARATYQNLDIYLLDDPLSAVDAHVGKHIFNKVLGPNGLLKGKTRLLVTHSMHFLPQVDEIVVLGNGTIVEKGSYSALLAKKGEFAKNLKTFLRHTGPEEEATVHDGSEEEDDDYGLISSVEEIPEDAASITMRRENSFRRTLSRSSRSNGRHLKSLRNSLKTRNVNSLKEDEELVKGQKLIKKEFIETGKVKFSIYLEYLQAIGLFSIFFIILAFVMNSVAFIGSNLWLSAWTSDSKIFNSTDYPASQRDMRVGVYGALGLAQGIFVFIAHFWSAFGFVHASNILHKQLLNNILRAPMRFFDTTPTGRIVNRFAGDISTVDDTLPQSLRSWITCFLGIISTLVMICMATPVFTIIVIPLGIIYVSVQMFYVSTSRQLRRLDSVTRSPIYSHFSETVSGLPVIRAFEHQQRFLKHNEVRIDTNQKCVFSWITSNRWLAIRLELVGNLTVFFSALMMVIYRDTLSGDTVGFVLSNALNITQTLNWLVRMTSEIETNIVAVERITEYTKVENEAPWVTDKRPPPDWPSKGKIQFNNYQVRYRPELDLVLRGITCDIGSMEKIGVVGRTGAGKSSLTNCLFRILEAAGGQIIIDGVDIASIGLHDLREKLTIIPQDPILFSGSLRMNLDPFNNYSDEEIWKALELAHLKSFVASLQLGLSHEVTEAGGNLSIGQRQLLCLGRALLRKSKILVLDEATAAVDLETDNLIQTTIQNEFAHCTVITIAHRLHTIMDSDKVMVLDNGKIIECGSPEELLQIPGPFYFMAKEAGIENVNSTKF
Activity [1],Activity [2] [%],Activity [4],Activity [5] [%],Activity [6],Activity [7],Activity [8] [%],Activity [9] [fold],Activity [10] [%],Activity [11],Compound,IC50 [3] [µM]
is not an inhibitor [-],1350,is not a inhibitor [-],230,is not an inhibitor [-],,,,,,COc1ccc(Cl)cc1C(=O)NCCc1ccc(S(=O)(=O)NC(=O)NC2CCCCC2)cc1 [GLYBURIDE],150
,,,,,is not an inhibitor [-],170,1.8,350,inhibitor [+],COc1ccc2c(c1)c(CC(=O)O)c(C)n2C(=O)c1ccc(Cl)cc1 [INDOMETHACIN],
